# Test results published in US8802597B2, “Herbicidal pyrimidines” (E I du Pont de Nemours and Company, priority 2003, dated 2014).
# Assays:
# Experiment in all cases: Test G pre/postemergence
# Assay type in all cases: in vivo
# [1] = test system: field bindweed (Convolvulus arvensis)
# Method in brief: (§1)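 Pre- and postemergence greenhouse test; compound in non-phytotoxic solvent/surfactant mix. Post timing: 2–18 cm plants, 1- to 4-leaf. Visual rating vs controls at 12–21 d, 0 (no effect) to 100 (complete control).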
# [2] = test system: common ragweed (Ambrosia elatior)
# Method in brief: as §1
# [3] = test system: black mustard (Brassica nigra)
# Method in brief: as §1
# [4] = test system: barnyardgrass (Echinochloa crus-galli)
# Method in brief: as §1
# [5] = test system: Italian ryegrass (Lolium multiflorum)
# Method in brief: as §1
# [6] = test system: Surinam grass (Brachiaria decumbens)
# Method in brief: as §1
# [7] = test system: common chickweed (Stellaria media)
# Method in brief: as §1
# [8] = test system: downy bromegrass (Bromus tectorum)
# Method in brief: as §1
# [9] = test system: southern sandbur (Cenchrus echinatus)
# Method in brief: as §1
# [10] = test system: prickly sida (Sida spinosa)
# Method in brief: as §1
# [11] = test system: annual bluegrass (Poa annua)
# Method in brief: as §1
# [12] = test system: bermudagrass (Cynodon dactylon)
# Method in brief: as §1
# [13] = test system: guineagrass (Panicum maximum)
# Method in brief: as §1
# [14] = test system: green foxtail (Setaria viridis)
# Method in brief: as §1
# [15] = Preemergence, 62 g ai/ha, scale 0-100
# [16] = Preemergence, 125 g ai/ha, scale 0-100
# [17] = Preemergence, 250 g ai/ha, scale 0-100
# [18] = Preemergence, 500 g ai/ha, scale 0 to 100
# [19] = Postemergence, 250 g ai/ha, scale 0 to 100
# [20] = Postemergence, 16 g ai/ha, scale 0 to 100
# [21] = Postemergence, 31 g ai/ha, scale 0 to 100
# [22] = Postemergence, 62 g ai/ha, scale 0 to 100
# [23] = Postemergence, 125 g ai/ha, scale 0 to 100
# [24] = Preemergence, 16 g ai/ha, scale 0-100
# [25] = Preemergence, 31 g ai/ha, scale 0-100
compound,measurement,setting,value
"COC(=O)c1nc(C2CC2)nc(N)c1Cl [Compound 9, methyl 6-amino-5-chloro-2-cyclopropyl-4-pyrimidinecarboxylate]","Plant response rating, Bindweed, Field",[1]; [15],95
same,"Plant response rating, Bindweed, Field",[1]; [16],100
same,"Plant response rating, Bindweed, Field",[1]; [17],100
same,"Plant response rating, Bindweed, Field",[1]; [18],100
same,"Plant response rating, Ragweed",[2]; [15],95
same,"Plant response rating, Ragweed",[2]; [16],100
same,"Plant response rating, Ragweed",[2]; [17],100
same,"Plant response rating, Ragweed",[2]; [18],100
same,"Plant response rating, Black Mustard",[3]; [15],70
same,"Plant response rating, Black Mustard",[3]; [16],75
same,"Plant response rating, Black Mustard",[3]; [17],100
same,"Plant response rating, Black Mustard",[3]; [18],100
same,"Plant response rating, Barnyardgrass",[4]; [15],30
same,"Plant response rating, Barnyardgrass",[4]; [16],70
same,"Plant response rating, Barnyardgrass",[4]; [17],85
same,"Plant response rating, Barnyardgrass",[4]; [18],95
same,"Plant response rating, Ryegrass, Italian",[5]; [15],20
same,"Plant response rating, Ryegrass, Italian",[5]; [16],50
same,"Plant response rating, Ryegrass, Italian",[5]; [17],75
same,"Plant response rating, Ryegrass, Italian",[5]; [18],80
same,"Plant response rating, Surinam Grass",[6]; [15],40
same,"Plant response rating, Surinam Grass",[6]; [16],70
same,"Plant response rating, Surinam Grass",[6]; [17],80
same,"Plant response rating, Surinam Grass",[6]; [18],90
same,"Plant response rating, Chickweed",[7]; [16],100
same,"Plant response rating, Chickweed",[7]; [17],100
same,"Plant response rating, Chickweed",[7]; [18],100
same,"Plant response rating, Bromegrass, Downy",[8]; [15],10
same,"Plant response rating, Bromegrass, Downy",[8]; [16],50
same,"Plant response rating, Bromegrass, Downy",[8]; [17],70
same,"Plant response rating, Bromegrass, Downy",[8]; [18],100
same,"Plant response rating, Sandbur",[9]; [16],80
same,"Plant response rating, Sandbur",[9]; [17],90
same,"Plant response rating, Sandbur",[9]; [18],95
same,"Plant response rating, Prickly Sida",[10]; [15],95
same,"Plant response rating, Prickly Sida",[10]; [16],100
same,"Plant response rating, Prickly Sida",[10]; [17],100
same,"Plant response rating, Prickly Sida",[10]; [18],100
same,"Plant response rating, Bluegrass",[11]; [15],10
same,"Plant response rating, Bluegrass",[11]; [16],30
same,"Plant response rating, Bluegrass",[11]; [17],95
same,"Plant response rating, Bluegrass",[11]; [18],100
same,"Plant response rating, Bermudagrass",[12]; [15],10
same,"Plant response rating, Bermudagrass",[12]; [16],95
same,"Plant response rating, Bermudagrass",[12]; [17],95
same,"Plant response rating, Bermudagrass",[12]; [18],100
same,"Plant response rating, Guineagrass",[13]; [15],90
same,"Plant response rating, Guineagrass",[13]; [16],100
same,"Plant response rating, Guineagrass",[13]; [17],100
same,"Plant response rating, Guineagrass",[13]; [18],100
same,"Plant response rating, Foxtail, Green",[14]; [15],20
same,"Plant response rating, Foxtail, Green",[14]; [16],85
same,"Plant response rating, Foxtail, Green",[14]; [17],100
same,"Plant response rating, Foxtail, Green",[14]; [18],100
"Nc1nc(C2CC2)nc(C(=O)OCc2ccccc2)c1Br [Compound 22, phenylmethyl 6-amino-5-bromo-2-cyclopropyl-4-pyrimidinecarboxylate]","Plant response rating, Bindweed, Field",[1]; [19],100
same,"Plant response rating, Bindweed, Field",[1]; [20],85
same,"Plant response rating, Bindweed, Field",[1]; [21],100
same,"Plant response rating, Bindweed, Field",[1]; [22],100
same,"Plant response rating, Bindweed, Field",[1]; [23],100
same,"Plant response rating, Bindweed, Field",[1]; [24],65
same,"Plant response rating, Bindweed, Field",[1]; [25],75
same,"Plant response rating, Bindweed, Field",[1]; [15],90
same,"Plant response rating, Bindweed, Field",[1]; [16],90
same,"Plant response rating, Bindweed, Field",[1]; [17],100
same,"Plant response rating, Ragweed",[2]; [19],100
same,"Plant response rating, Ragweed",[2]; [20],65
same,"Plant response rating, Ragweed",[2]; [21],85
same,"Plant response rating, Ragweed",[2]; [22],98
same,"Plant response rating, Ragweed",[2]; [23],98
same,"Plant response rating, Ragweed",[2]; [24],65
same,"Plant response rating, Ragweed",[2]; [25],75
same,"Plant response rating, Ragweed",[2]; [15],90
same,"Plant response rating, Ragweed",[2]; [16],95
same,"Plant response rating, Ragweed",[2]; [17],100
same,"Plant response rating, Black Mustard",[3]; [19],95
same,"Plant response rating, Black Mustard",[3]; [20],50
same,"Plant response rating, Black Mustard",[3]; [21],75
same,"Plant response rating, Black Mustard",[3]; [22],75
same,"Plant response rating, Black Mustard",[3]; [23],95
same,"Plant response rating, Black Mustard",[3]; [24],30
same,"Plant response rating, Black Mustard",[3]; [25],35
same,"Plant response rating, Black Mustard",[3]; [15],60
same,"Plant response rating, Black Mustard",[3]; [16],65
same,"Plant response rating, Black Mustard",[3]; [17],75
same,"Plant response rating, Barnyardgrass",[4]; [19],85
same,"Plant response rating, Barnyardgrass",[4]; [20],0
same,"Plant response rating, Barnyardgrass",[4]; [21],0
same,"Plant response rating, Barnyardgrass",[4]; [22],15
same,"Plant response rating, Barnyardgrass",[4]; [23],25
same,"Plant response rating, Barnyardgrass",[4]; [24],10
same,"Plant response rating, Barnyardgrass",[4]; [25],20
same,"Plant response rating, Barnyardgrass",[4]; [15],30
same,"Plant response rating, Barnyardgrass",[4]; [16],70
same,"Plant response rating, Barnyardgrass",[4]; [17],80
same,"Plant response rating, Ryegrass, Italian",[5]; [19],85
same,"Plant response rating, Ryegrass, Italian",[5]; [20],0
same,"Plant response rating, Ryegrass, Italian",[5]; [21],5
same,"Plant response rating, Ryegrass, Italian",[5]; [22],15
same,"Plant response rating, Ryegrass, Italian",[5]; [23],40
same,"Plant response rating, Ryegrass, Italian",[5]; [24],0
same,"Plant response rating, Ryegrass, Italian",[5]; [25],0
same,"Plant response rating, Ryegrass, Italian",[5]; [15],0
same,"Plant response rating, Ryegrass, Italian",[5]; [16],0
same,"Plant response rating, Ryegrass, Italian",[5]; [17],50
same,"Plant response rating, Surinam Grass",[6]; [19],95
same,"Plant response rating, Surinam Grass",[6]; [20],0
same,"Plant response rating, Surinam Grass",[6]; [21],15
same,"Plant response rating, Surinam Grass",[6]; [22],35
same,"Plant response rating, Surinam Grass",[6]; [23],65
same,"Plant response rating, Surinam Grass",[6]; [24],0
same,"Plant response rating, Surinam Grass",[6]; [25],0
same,"Plant response rating, Surinam Grass",[6]; [15],0
same,"Plant response rating, Surinam Grass",[6]; [16],35
same,"Plant response rating, Surinam Grass",[6]; [17],90
same,"Plant response rating, Chickweed",[7]; [19],95
same,"Plant response rating, Chickweed",[7]; [21],50
same,"Plant response rating, Chickweed",[7]; [22],50
same,"Plant response rating, Chickweed",[7]; [23],85
same,"Plant response rating, Chickweed",[7]; [24],0
same,"Plant response rating, Chickweed",[7]; [25],50
same,"Plant response rating, Chickweed",[7]; [16],90
same,"Plant response rating, Chickweed",[7]; [17],100
same,"Plant response rating, Bromegrass, Downy",[8]; [19],95
same,"Plant response rating, Bromegrass, Downy",[8]; [20],15
same,"Plant response rating, Bromegrass, Downy",[8]; [21],65
same,"Plant response rating, Bromegrass, Downy",[8]; [22],85
same,"Plant response rating, Bromegrass, Downy",[8]; [23],95
same,"Plant response rating, Bromegrass, Downy",[8]; [24],0
same,"Plant response rating, Bromegrass, Downy",[8]; [25],0
same,"Plant response rating, Bromegrass, Downy",[8]; [15],0
same,"Plant response rating, Bromegrass, Downy",[8]; [16],20
same,"Plant response rating, Bromegrass, Downy",[8]; [17],75
same,"Plant response rating, Sandbur",[9]; [19],95
same,"Plant response rating, Sandbur",[9]; [20],0
same,"Plant response rating, Sandbur",[9]; [21],15
same,"Plant response rating, Sandbur",[9]; [22],40
same,"Plant response rating, Sandbur",[9]; [23],85
same,"Plant response rating, Sandbur",[9]; [24],0
same,"Plant response rating, Sandbur",[9]; [25],0
same,"Plant response rating, Sandbur",[9]; [15],0
same,"Plant response rating, Sandbur",[9]; [16],70
same,"Plant response rating, Sandbur",[9]; [17],85
same,"Plant response rating, Prickly Sida",[10]; [19],95
same,"Plant response rating, Prickly Sida",[10]; [20],75
same,"Plant response rating, Prickly Sida",[10]; [21],85
same,"Plant response rating, Prickly Sida",[10]; [22],90
same,"Plant response rating, Prickly Sida",[10]; [23],95
same,"Plant response rating, Prickly Sida",[10]; [24],50
same,"Plant response rating, Prickly Sida",[10]; [25],50
same,"Plant response rating, Prickly Sida",[10]; [15],65
same,"Plant response rating, Prickly Sida",[10]; [16],80
same,"Plant response rating, Prickly Sida",[10]; [17],95
same,"Plant response rating, Bluegrass",[11]; [19],75
same,"Plant response rating, Bluegrass",[11]; [20],0
same,"Plant response rating, Bluegrass",[11]; [21],0
same,"Plant response rating, Bluegrass",[11]; [22],15
same,"Plant response rating, Bluegrass",[11]; [23],40
same,"Plant response rating, Bluegrass",[11]; [24],0
same,"Plant response rating, Bluegrass",[11]; [25],0
same,"Plant response rating, Bluegrass",[11]; [15],0
same,"Plant response rating, Bluegrass",[11]; [16],30
same,"Plant response rating, Bluegrass",[11]; [17],60
same,"Plant response rating, Bermudagrass",[12]; [19],65
same,"Plant response rating, Bermudagrass",[12]; [20],15
same,"Plant response rating, Bermudagrass",[12]; [21],35
same,"Plant response rating, Bermudagrass",[12]; [22],35
same,"Plant response rating, Bermudagrass",[12]; [23],40
same,"Plant response rating, Bermudagrass",[12]; [24],0
same,"Plant response rating, Bermudagrass",[12]; [25],0
same,"Plant response rating, Bermudagrass",[12]; [15],0
same,"Plant response rating, Bermudagrass",[12]; [16],0
same,"Plant response rating, Bermudagrass",[12]; [17],30
same,"Plant response rating, Guineagrass",[13]; [19],100
same,"Plant response rating, Guineagrass",[13]; [20],5
same,"Plant response rating, Guineagrass",[13]; [21],55
same,"Plant response rating, Guineagrass",[13]; [22],65
same,"Plant response rating, Guineagrass",[13]; [23],95
same,"Plant response rating, Guineagrass",[13]; [24],0
same,"Plant response rating, Guineagrass",[13]; [25],35
same,"Plant response rating, Guineagrass",[13]; [15],75
same,"Plant response rating, Guineagrass",[13]; [16],90
same,"Plant response rating, Guineagrass",[13]; [17],95
same,"Plant response rating, Foxtail, Green",[14]; [19],75
same,"Plant response rating, Foxtail, Green",[14]; [20],0
same,"Plant response rating, Foxtail, Green",[14]; [21],15
same,"Plant response rating, Foxtail, Green",[14]; [22],25
same,"Plant response rating, Foxtail, Green",[14]; [23],50
same,"Plant response rating, Foxtail, Green",[14]; [24],0
same,"Plant response rating, Foxtail, Green",[14]; [25],0
same,"Plant response rating, Foxtail, Green",[14]; [15],0
same,"Plant response rating, Foxtail, Green",[14]; [16],10
same,"Plant response rating, Foxtail, Green",[14]; [17],20
